Experimental data: PubChem BioAssay AID1996
Values after ≈ are worked out from the molar mass of the structure shown.

conditions: buffer; pH 7.4; 200.0 µM

| SMILES | solubility kinetic |
| --- | --- |
| CC(OC(=O)C1CC2CCCC(C1)C2=O)C(=O)Nc1cccc([N+](=O)[O-])c1 (stereo not given) | > 0.0562 mg/mL |
| CC(=O)NCCCc1nc2ccccc2n1Cc1ccccc1F | 0.0486 mg/mL (≈ 149 µM) |
| O=C(CN1C(=O)CCC1=O)Nc1nc(-c2ccc3ccccc3c2)cs1 | 0.0018 mg/mL (≈ 4.93 µM) |
| Cc1ccc(OCC(=O)NC2CCSc3ccccc32)cc1 (stereo not given) | 0.0118 mg/mL (≈ 37.6 µM) |
| Cc1ccccc1NC(=S)Nc1ccc2[nH]c(=O)[nH]c2c1 | 0.0417 mg/mL (≈ 140 µM) |
| CCC(=O)N(Cc1cc2ccccc2[nH]c1=O)c1ccccc1OC | 0.0322 mg/mL (≈ 95.7 µM) |
| O=C1CN(C(=S)Nc2ccccc2Cl)CCN1 | > 0.0405 mg/mL |
| O=C(c1ccccc1F)N1CCN(C(=O)C2CC2)CC1 | > 0.0414 mg/mL |
| CCc1cccc(C)c1NC(=S)N(CCOC)C(C)c1ccco1 (stereo not given) | 0.0258 mg/mL (≈ 74.5 µM) |
| CSc1ccccc1NC(=O)c1ccccc1C | 0.0309 mg/mL (≈ 120 µM) |
| CCc1ccccc1NC(=O)[C@@H]1CCC(=O)N1C1OC(=O)c2ccccc21 (stereo not given in full) | > 0.0547 mg/mL |
| O=C(CSc1nc2c(cnn2-c2ccccc2)c(=O)[nH]1)NCC1CCCO1 (stereo not given) | > 0.0578 mg/mL |
| O=C(CN1C(=O)NC2(CCCCCC2)C1=O)NCCc1ccccc1 | > 0.0515 mg/mL |
| COc1ccccc1C(c1c(N)n(C)c(=O)n(C)c1=O)C(C)[N+](=O)[O-] (stereo not given) | > 0.0523 mg/mL |
| CCC(=NCc1cccnc1)c1c(O)n(-c2ccccc2C)c(=O)[nH]c1=O | > 0.0547 mg/mL |
| CC#CC(=O)N1CCCC(C(=O)c2ccc(SC)cc2)C1 (stereo not given) | > 0.0452 mg/mL |
| CN(c1ccc(C(=O)Nc2ccc(CC#N)cc2)cc1)S(C)(=O)=O | 0.0042 mg/mL (≈ 12.2 µM) |
| CC1C(=O)C(C)C(c2ccc(O)cc2)NC1c1ccc(O)cc1 (stereo not given) | 0.0454 mg/mL (≈ 146 µM) |
| O=C(O)CSc1nc(-c2ccccc2)nc2c1CCCC2 | > 0.0451 mg/mL |
| Cc1cc(NC(=O)c2ccccc2)ccc1NC(=O)Cc1ccccc1 | 0.0008 mg/mL (≈ 2.32 µM) |
| O=C(c1ccc(Cn2cc([N+](=O)[O-])cn2)o1)N1CCCC1 | > 0.0435 mg/mL |
| CC1CCCN(C(=O)C2CCN(C(=O)Nc3ccccc3)CC2)C1 (stereo not given) | > 0.0494 mg/mL |

| SMILES | solubility kinetic |
| --- | --- |
| C=CCn1c(O)c(C=NC2CCN(Cc3ccccc3)CC2)c(=O)[nH]c1=O | 0.0541 mg/mL (≈ 147 µM) |
| CCCNC(=O)CCn1c(=S)oc2ccccc21 | > 0.0397 mg/mL |
| N#Cc1c(/N=C/c2ccc(-c3ccccc3C(=O)O)o2)sc2c1CCCC2 | > 0.0565 mg/mL |
| COc1ccc(-c2nc3ccccc3c(=O)[nH]2)cc1 | 0.0022 mg/mL (≈ 8.72 µM) |
| CCCS(=O)(=O)N1CCN=C1SCc1ccc(F)cc1 | > 0.0475 mg/mL |
| O=C(Nc1nnc(-c2ccncc2)o1)c1ccccc1 | > 0.0399 mg/mL |
| Cc1ccc(S(=O)(=O)N2CCCCC2)cc1NC(=O)COc1ccccc1 | 0.0043 mg/mL (≈ 11.1 µM) |
| CC1CC2(CCCC2)N(C(=O)N(C)C)c2ccc(F)cc21 (stereo not given) | 0.0105 mg/mL (≈ 36.2 µM) |
| O=C(CN1C(=O)NC(c2ccccc2)(c2ccccc2)C1=O)NCc1ccco1 | 0.0137 mg/mL (≈ 35.2 µM) |
| CCCC(=O)Nc1nc(C)c(C(C)=O)s1 | > 0.0339 mg/mL |
| CCc1ccccc1N1C(=O)C(Cl)=C(N2CCOCC2)C1=O | 0.0458 mg/mL (≈ 143 µM) |
| C#CCn1cccc(C(=O)Nc2ccc(OC)cc2)c1=O | 0.0063 mg/mL (≈ 22.3 µM) |
| CC(C)(C)n1cnc2cc(NCc3ccccc3O)ccc21 | 0.0345 mg/mL (≈ 117 µM) |
| Cc1cccc(NC(=O)c2ccc3c(c2)OCCO3)n1 | 0.0328 mg/mL (≈ 121 µM) |
| NC(=O)c1ccsc1NC(=O)CSc1ncnc2sccc12 | 0.006 mg/mL (≈ 17.1 µM) |
| Cc1nc2c(oc3ccc(Cl)cc32)c(=O)[nH]1 | 0.0119 mg/mL (≈ 50.7 µM) |
| O=C(CNC(=O)c1ccc2ccccc2c1)NC1CCCCC1 | 0.013 mg/mL (≈ 41.9 µM) |
| CCOc1ccc(NC(=O)COC(=O)c2ccc3c(c2)OCO3)cc1 | 0.004 mg/mL (≈ 11.7 µM) |
| N[C@@H](Cc1c[nH]c2ccc(O)cc12)C(=O)O | 0.0326 mg/mL (≈ 148 µM) |
| Cc1ccsc1C(=O)OCC(=O)NC1CCS(=O)(=O)C1 (stereo not given) | > 0.0476 mg/mL |
| Cc1ccc(C(=O)NC(C(=O)NC2CCCC2)c2ccccc2)cc1 (stereo not given) | 0.0041 mg/mL (≈ 12.2 µM) |
| O=C(O)CC1(CC(=O)Nc2cc(F)ccc2Cl)CCCCC1 | > 0.0492 mg/mL |

| SMILES | solubility kinetic |
| --- | --- |
| COc1ccc(S(=O)(=O)NC2CCCCC2)cc1F | > 0.0431 mg/mL |
| COc1ccc(C(=O)Nc2ccc(N3CCCC3)cc2)cc1Br | < 0.0004 mg/mL |
| Cc1cccc(C)c1NC(=O)N1C2CCC1CC(O)(c1cccnc1)C2 (stereo not given) | > 0.0527 mg/mL |
| O=C(Cc1c(F)cccc1Cl)N(Cc1ccccc1)c1ccccn1 | 0.0373 mg/mL (≈ 105 µM) |
| COC(=O)c1nccnc1C(=O)Nc1ccccc1N1CCOCC1 | > 0.0514 mg/mL |
| Cc1nnc(SCCCCSc2nnc(C)c(=O)[nH]2)[nH]c1=O | > 0.0511 mg/mL |
| CN(C)c1nc(OCc2ccccc2)c2ncc(=O)[nH]c2n1 | 0.0012 mg/mL (≈ 4.04 µM) |
| CN1CCN(c2nc3c(c(=O)n(C)c(=O)n3C)n2Cc2ccccc2F)CC1 | > 0.058 mg/mL |
| C=CCOc1ccc(CNCC2CCCO2)cc1.Cl (stereo not given) | > 0.0426 mg/mL |
| Cl.O=S(=O)(NCCN1CCOCC1)c1cccs1 | > 0.0469 mg/mL |
| CCN1CCN(C(=O)C(C)Sc2nc3nc(C)cc(C)n3n2)CC1 (stereo not given) | > 0.0523 mg/mL |
| O=C(Cc1ccc(F)cc1)NC1CCCCCC1 | > 0.0374 mg/mL |
| COc1cc(C(=O)Nc2ccn(C)n2)ccc1OC(F)F | > 0.0446 mg/mL |
| O=C(Nc1cccnc1)c1ccc(N2CCOCC2)c([N+](=O)[O-])c1 | 0.0412 mg/mL (≈ 125 µM) |
| S=C(NCc1ccco1)Nc1ccccc1Cl | > 0.04 mg/mL |
| O=C(NNC(=O)C1CCN(c2ncccn2)CC1)c1ccncc1 | > 0.049 mg/mL |
| CN(C)CCCN(Cc1ccc2c(c1)OCO2)C(=O)NC1CCCCC1 | > 0.0542 mg/mL |
| Cc1ccc(O)c(Nc2ncnc3ccc([N+](=O)[O-])cc23)c1.Cl | 0.0096 mg/mL |
| CN(C)C1(CN=Cc2cc(Cl)cc([N+](=O)[O-])c2O)CCCCC1 | > 0.051 mg/mL |
| Cc1ccnc(NC2CCCCC2)c1 | 0.0253 mg/mL (≈ 133 µM) |
| O=C(CCNC(=O)c1ccccc1)OCC(=O)c1ccccc1 | > 0.0467 mg/mL |
| Cc1ccc(Nc2nc(Cl)nc(NC3CCCCC3)n2)cc1 | < 0.0001 mg/mL |

| SMILES | solubility kinetic |
| --- | --- |
| O=C1CSC(c2cccnc2)N1Cc1ccc(Cl)cc1 (stereo not given) | 0.0426 mg/mL (≈ 140 µM) |
| COc1ccc(CCC(=O)Nc2ccc(Cn3ccnc3)cc2)cc1 | 0.0442 mg/mL (≈ 132 µM) |
| Fc1ccccc1Oc1nc(-c2ccncc2)nc2ccccc12 | < 0.0002 mg/mL |
| O=C(Nc1ccc(NS(=O)(=O)c2ccccc2)cc1)c1ccccc1Cl | 0.0061 mg/mL (≈ 15.8 µM) |
| COc1ccccc1CC(=O)Nc1ccc(F)cc1F | > 0.0416 mg/mL |
| COC(=O)c1ccc(N2CCc3ccccc32)c([N+](=O)[O-])c1 | 0.001 mg/mL (≈ 3.35 µM) |
| CCC1CCc2sc(C(=O)NCc3ccccn3)cc2C1 (stereo not given) | 0.0368 mg/mL (≈ 122 µM) |
| CN(C)c1nc(-c2ccccc2)c2cc(Cl)ccc2n1 | 0.001 mg/mL (≈ 3.52 µM) |
| COc1cc(C(=O)O)c([N+](=O)[O-])c(OC)c1OC | > 0.0386 mg/mL |
| CO/N=C1\CCn2c1c(C)c1ccccc12 | 0.0008 mg/mL (≈ 3.73 µM) |
| COc1ccc(NC(=O)CNCc2ccc(Cl)cc2)cc1S(=O)(=O)N1CCOCC1.O=C(O)C(=O)O | > 0.0816 mg/mL |
| C=CCNC(=O)N[C@@H](Cc1ccccc1)C(=O)OC | > 0.0393 mg/mL |
| Cc1ccc(NC(=O)c2sc(N)nc2C)cc1 | > 0.0371 mg/mL |
| Cc1cccc(NC(=O)CC2(CC(=O)O)CCCC2)c1 | 0.0412 mg/mL (≈ 150 µM) |
| O=C(NC1CSCC1OC(=O)c1ccccc1)c1ccccc1 (stereo not given) | 0.0261 mg/mL (≈ 79.7 µM) |
| COCCOc1ccc(C(F)(F)F)cc1NC(=O)COC(=O)c1ccc(N2CCCC2=O)cc1 | 0.003 mg/mL (≈ 6.24 µM) |
| CC1(C)C(=O)N(c2ccccc2)C1c1ccccc1O (stereo not given) | > 0.0401 mg/mL |
| O=C(CNc1ccccc1)Nc1cccc2ccccc12 | 0.0034 mg/mL (≈ 12.3 µM) |
| O=Cc1c(C(=O)O)n(Cc2ccccc2F)c2ccccc12 | > 0.0446 mg/mL |
